The record followed here is US20060069132A1, “Azolecarboxamide herbicides” (priority 2004, published 2006).

Holding throughout (assay): Test A pre-/postemergence herbicide test
One assay has as its system velvetleaf. It counts as in vivo, Abutilon theophrasti. The text has this: (§1) Seeds of plant species selected from barnyardgrass (Echinochloa crus-galli (L.) Beauv.), downy bromegrass (Bromus tectorum L.), large crabgrass (Digitaria sanguinalis (L.) Scop.), giant foxtail (Setaria faberi Herrm.), morningglory (Ipomoea spp.), redroot pigweed (Amaranthus retroflexus L.) and velvetleaf (Abutilon theophrasti Medik.) were planted into a sandy loam soil and treated preemergence with a directed soil spray using test chemicals formulated in a non-phytotoxic solvent mixture which included a surfactant. At the same time plants selected from these species were also treated postemergence by spraying to runoff with test chemicals formulated.
(§2) Plants ranged in height from 2 to 10 cm and were in the one- to two-leaf stage for the postemergence treatment. Treated plants and untreated controls were maintained in a greenhouse for approximately ten days, after which time all treated plants were compared to untreated controls and visually evaluated for injury. Plant response ratings, summarized in Table A, are based on a 0 to 100 scale where 0 is no effect and 100 is complete control. A dash (-) response means no test results.

The subject of another assay is barnyardgrass. The assay is classed as in vivo, Echinochloa crus-galli.
Source text: as §1, §2

In the next assay the test system is large crabgrass. It counts as in vivo, Digitaria sanguinalis.
Source text: as §1, §2

A further assay relates to giant foxtail. The assay is classed as in vivo, Setaria faberi.
Source text: as §1, §2

In the next assay the test system is morningglory. It counts as in vivo, Ipomoea spp.
Source text: as §1, §2

Another assay has as its system redroot pigweed. The assay is classed as in vivo, Amaranthus retroflexus.
Source text: as §1, §2

Setting [1] is: Postemergence, 125 g ai/ha, 0 to 100 scale, 0 no effect, 100 complete control.
Setting [2] is: Postemergence, 500 g ai/ha, 0 to 100 scale, 0 no effect, 100 complete control.
Setting [3] is: Preemergence, 500 g ai/ha, visual rating, 0 to 100 scale (0 no effect, 100 complete control).
Where [4] appears, read: preemergence, 125 g ai/ha, visual injury, 0 to 100 scale (0 no effect, 100 complete control).
Setting [5] is: Postemergence, 250 g ai/ha, 0 to 100 scale, 0 no effect, 100 complete control.
The mark [6] stands for this setting: Postemergence, 1000 g ai/ha, 0 to 100 scale, 0 no effect, 100 complete control.
Where [7] appears, read: Preemergence, 1000 g ai/ha, visual rating, 0 to 100 scale (0 no effect, 100 complete control).
The mark [8] stands for this setting: preemergence, 250 g ai/ha, visual injury, 0 to 100 scale (0 no effect, 100 complete control).
The mark [9] stands for this setting: Postemergence, 2000 g ai/ha, 0 to 100 scale, 0 no effect, 100 complete control.
[10] abbreviates: Preemergence, 2000 g ai/ha, visual rating, 0 to 100 scale (0 no effect, 100 complete control).
Setting [11] is: preemergence, 500 g ai/ha, visual injury, 0 to 100 scale (0 no effect, 100 complete control).

In the case of `C=Cn1nc(C(C)(C)C)cc1C(=O)Nc1cccc(C(=O)NCCCl)c1` [Compound 38], the “Velvetleaf plant response rating” value with velvetleaf (setting [1]) came to 10; in the assay with velvetleaf (setting [3]), 5; with velvetleaf (setting [4]), 0. Further, in the assay with velvetleaf (setting [2]), the “Plant response rating, Velvetleaf” value was 20. In addition, the “Barnyardgrass plant response rating” value in the assay on barnyardgrass (setting [1]) was found to be 40; in the assay with barnyardgrass (setting [3]) it was 5; in the assay on barnyardgrass (setting [4]) it was 0. For the same compound, the “Plant response rating, Barnyardgrass” value with barnyardgrass (setting [2]) was 55. Moreover, the “Crabgrass, Large plant response rating” value in the assay on large crabgrass (setting [1]) is reported as 30; with large crabgrass (setting [3]) it was 10; with large crabgrass (setting [4]), 0. Besides, the “Plant response rating, Crabgrass, Large” value with large crabgrass (setting [2]) is recorded as 60. Moreover, the “Foxtail, Giant plant response rating” value in the assay with giant foxtail (setting [1]) is 50; in the assay on giant foxtail (setting [3]) it was 0; with giant foxtail (setting [4]) it was 0. In addition, the “Plant response rating, Foxtail, Giant” value in the assay on giant foxtail (setting [2]) amounted to 60. Also, the “Morningglory plant response rating” value in the assay with morningglory (setting [1]) came to 0; with morningglory (setting [3]), 10; with morningglory (setting [4]), 5. Also, in the assay with morningglory (setting [2]), the “Plant response rating, Morningglory” value amounted to 0. In addition, the “Pigweed plant response rating” value with redroot pigweed (setting [1]) was found to be 50; in the assay on redroot pigweed (setting [3]) it was 0; in the assay with redroot pigweed (setting [4]), 0. The “Plant response rating, Pigweed” value in the assay on redroot pigweed (setting [2]) is 70.

Take `C=Cn1nc(C(C)(C)C)cc1C(=O)Nc1cccc(C(=O)NC2CC2)c1` [Compound 39]: the “Velvetleaf plant response rating” value came out at 10 in the assay on velvetleaf (setting [5]), 20 with velvetleaf (setting [7]) and 10 with velvetleaf (setting [8]). In addition, in the assay on velvetleaf (setting [6]), the “Plant response rating, Velvetleaf” value is 10. The “Barnyardgrass plant response rating” value in the assay on barnyardgrass (setting [5]) stood at 10; in the assay with barnyardgrass (setting [7]), 25; with barnyardgrass (setting [8]), 15. In addition, the “Plant response rating, Barnyardgrass” value in the assay with barnyardgrass (setting [6]) is given as 55. The “Crabgrass, Large plant response rating” value with large crabgrass (setting [5]) is reported as 10; in the assay with large crabgrass (setting [7]) it was 85; in the assay on large crabgrass (setting [8]), 35. The “Plant response rating, Crabgrass, Large” value with large crabgrass (setting [6]) worked out at 35. For the same compound, the “Foxtail, Giant plant response rating” value is reported as 10 in the assay on giant foxtail (setting [5]), 40 in the assay on giant foxtail (setting [7]) and 20 in the assay on giant foxtail (setting [8]). For the same compound, the “Plant response rating, Foxtail, Giant” value in the assay on giant foxtail (setting [6]) is recorded as 45. In addition, the figures for the “Morningglory plant response rating” value with morningglory (setting [5]), with morningglory (setting [7]) and in the assay on morningglory (setting [8]) were 0, 20 and 0, respectively. Further, the “Plant response rating, Morningglory” value with morningglory (setting [6]) is recorded as 0. The results for the “Pigweed plant response rating” value with redroot pigweed (setting [5]), in the assay with redroot pigweed (setting [7]) and with redroot pigweed (setting [8]) were 70, 100 and 55, respectively. Moreover, in the assay with redroot pigweed (setting [6]), the “Plant response rating, Pigweed” value was found to be 75.

Consider `Cn1nc(C(C)(C)C)cc1C(=O)Nc1cccc2c1CCC2=NO` [Compound 111], for which the “Velvetleaf plant response rating” value in the assay with velvetleaf (setting [2]), with velvetleaf (setting [3]) and in the assay on velvetleaf (setting [10]) was 0 throughout. For the same compound, the “Plant response rating, Velvetleaf” value with velvetleaf (setting [9]) worked out at 0. In addition, the “Barnyardgrass plant response rating” value with barnyardgrass (setting [2]) was determined as 0; in the assay on barnyardgrass (setting [3]), 0; with barnyardgrass (setting [10]), 10. Moreover, the “Plant response rating, Barnyardgrass” value in the assay on barnyardgrass (setting [9]) turned out to be 0. Besides, the figures for the “Crabgrass, Large plant response rating” value with large crabgrass (setting [2]), in the assay with large crabgrass (setting [3]) and with large crabgrass (setting [10]) were 10, 25 and 30, respectively. Also, the “Plant response rating, Crabgrass, Large” value in the assay on large crabgrass (setting [9]) was 10. For the same compound, the results for the “Foxtail, Giant plant response rating” value with giant foxtail (setting [2]), with giant foxtail (setting [3]) and in the assay with giant foxtail (setting [10]) were 0, 45 and 75, respectively. Further, in the assay on giant foxtail (setting [9]), the “Plant response rating, Foxtail, Giant” value is 0. Further, the “Morningglory plant response rating” value in the assay on morningglory (setting [2]) is 5; with morningglory (setting [3]), 0; in the assay with morningglory (setting [10]), 0. Moreover, the “Plant response rating, Morningglory” value in the assay on morningglory (setting [9]) amounted to 0. The “Pigweed plant response rating” value amounted to 5 in the assay on redroot pigweed (setting [2]), 10 in the assay on redroot pigweed (setting [3]) and 10 in the assay with redroot pigweed (setting [10]). In addition, the “Plant response rating, Pigweed” value in the assay on redroot pigweed (setting [9]) is on record as 10.

For the compound `CCc1nn(C(C)(C)C)cc1C(=S)Nc1cc(C(=S)N(C)C)ccc1F` [Compound 453], the “Velvetleaf plant response rating” value in the assay on velvetleaf (setting [1]) came to 5; with velvetleaf (setting [2]) it was 10; in the assay on velvetleaf (setting [4]), 0; in the assay on velvetleaf (setting [11]), 0. Moreover, the “Barnyardgrass plant response rating” value in the assay with barnyardgrass (setting [1]) is 10; in the assay on barnyardgrass (setting [2]) it was 15; with barnyardgrass (setting [4]) it was 20; with barnyardgrass (setting [11]) it was 45. The “Crabgrass, Large plant response rating” value is listed as 10 in the assay on large crabgrass (setting [1]), 10 in the assay on large crabgrass (setting [2]), 10 with large crabgrass (setting [4]) and 15 in the assay on large crabgrass (setting [11]). The “Foxtail, Giant plant response rating” value with giant foxtail (setting [1]) is on record as 10; in the assay with giant foxtail (setting [2]) it was 10; in the assay on giant foxtail (setting [4]), 0; in the assay on giant foxtail (setting [11]), 0. Further, the “Morningglory plant response rating” value with morningglory (setting [1]) came out at 10; in the assay on morningglory (setting [2]), 10; with morningglory (setting [4]), 0; in the assay with morningglory (setting [11]), 0. Besides, the “Pigweed plant response rating” value is on record as 10 in the assay on redroot pigweed (setting [1]), 20 with redroot pigweed (setting [2]), 10 with redroot pigweed (setting [4]) and 10 in the assay on redroot pigweed (setting [11]).
